Experiments:
mTORC1 [1] = molecular target: T1, mTORC1 (Homo sapiens, UniProt P42345); assay: Immunoblot of mTORC1 activity in TSC2^−/− AML cells; assay type: cell-based; design: AML cells (1.10^6 cells) deficient for TSC2 (TS2^−/−) or reconstituted with wild type TSC2; endogenous in cells; host or cells: AML (angiomyolipoma) cells from a patient, TSC2-/- or reconstituted with wild type TSC2; conditions: 10 μM, FIG. 15
Method: AML cells (1.10^6 cells) deficient for TSC2 (TS2^−/−) or reconstituted with wild type TSC2 (TSC2^+/+) (generous gift from Dr M. Pende, Paris) were treated or untreated for indicated times with 10 μM of compound 25 or rapamycin and then cells were lyzed. 100 μg of protein was loaded and resolved by SDS-PAGE and indicated immunoblots were performed. Total S6 and β-actin serve as loading controls. S6 is phosphorylated by p70S6K on its serine 240 and 244. 4EBP1 is phosphorylated by mTORC1 on its Threonine at positions 37 and 46. p70S6K and 4EBP1 are direct substrates of mTORC1. mTORC1-driven phosphorylation of 4EBP1 can be monitored by the appearance of a high molecular weight band which disappears in presence of compound 25 or Rapamycin (see FIG. 15). Of note, restoration of TS2 expression in AML cells reduces the basal level of S6 and 4EBP1 phosphorylation.
(§1) Immunoblots Excepted for immunoprecipitation experiments in which cells were lyzed with RIPA buffer, cells were lyzed for 30 min at 4° C. in Lysis buffer (25 mM HEPES pH 7.4, 1% v/v Triton X-100, 150 mM NaCl, 2 mM EGTA supplemented with a mix of protease inhibitors). Protein concentration was determined by the bicinchoninic acid method (Pierce, Rockford, Ill., USA) according to the manufacturer's protocol. Proteins were resolved by 8, 10 or 12% SDS-PAGE and transferred to a nitrocellulose membrane (GE Healthcare, Buckinghamshire, UK). […]

mTORC2 = mTORC2 (Homo sapiens, UniProt P42345); assay: Immunoblot of mTORC2 substrate Akt-Ser473 in CEM cells; assay type: cell-based; design: endogenous in cells; host or cells: CEM cells; conditions: 2 hours, FIG. 16
Method: (§2) CEM cells (1·10^6 cells) were incubated with indicated concentrations of compound 25 for 2 hours and lysates of the cells were subjected to Western blot analysis. Inhibitory activity of compound 25 on mTORC1 substrates p70S6K-Thr389 and 4EBP1-Thr37 and 46 and on mTORC2 substrate Akt-Ser473 and on PDK1 substrate Akt-Thr308 was evaluated by immunoblotting. Total 4EBP1, p70S6K, Akt and […] serve as loading controls. The compounds of the invention and more particularly compound 25 may be competitive inhibitors of mTOR because they inhibit mTORC1 (4EBP1 and p70S6K) and mTORC2 substrates (AKT at S473) as shown in FIG. 16.
as §1, with “UK). The membrane was blocked 15 min with TBST (50 mM Tris, 160 mM NaCl, 0.05% v/v Tween 20, pH 7.4) containing 5% w/v dried skimmed milk (TBS™). Primary antibody was incubated overnight at 4° C. in TBS™.” for “UK).”

[2] = system: MCF-7 (ER-positive) breast tumor cell line; assay: Cell death by MTT assay, MCF-7; assay type: cell-based, human; conditions: 24 hours, mean of four experiments
Method: (§3) The ER-positive breast tumor cell lines MCF-7 and T47-D and the HER2 positive breast tumor cell lines MDA-MB-453 and BT474 (also ER-positive) were incubated with the indicated concentration of each mentioned compound of formula (I) for 24 hours and then cell death was assessed using MTT assay.
(§4) For each cell line, the percentage of cell death (mean of four experiments for cell lines MCF-7 and T47-D, and two experiments for cell lines MDA-MB-453 and BT474) is given in view of the increasing concentration of each tested compound of the invention.
(§5) Cell viability was assessed using the 3-[4,5-dimethylthiazol-2-yl]-2,5-diphenyltetrazolium bromide (MTT) viability assay (1). In brief, cells (4×10^4 per well) were cultured for 20 h in flat-bottomed 96 well plates with various concentrations of the apoptosis inducer. Then 0.015 ml of MTT (5 mg/ml in PBS) was added to each well and incubated for 4 h at 37° C. Formazan salt precipitats were dissolved by adding 0.115 ml of isopropyl alcohol containing 1% formic acid (v/v), and the absorbance was measured at 570 nm.

mTORC1 [3] = molecular target: T1, mTORC1; assay: Immunoblot of mTORC1 substrates p70S6K-Thr389 and 4EBP1-Thr37 and 46 in CEM cells; assay type: cell-based; design: AML cells (1.10^6 cells) deficient for TSC2 (TS2^−/−) or reconstituted with wild type TSC2; endogenous in cells; conditions: 2 hours, FIG. 16
Method: as §2
as §1, with “UK). The membrane was blocked 15 min with TBST (50 mM Tris, 160 mM NaCl, 0.05% v/v Tween 20, pH 7.4) containing 5% w/v dried skimmed milk (TBS™). Primary antibody was incubated overnight at 4° C. in TBS™.” for “UK).”

[4] = system: MDA-MB-453 (HER2 positive) breast tumor cell line; assay: Cell death by MTT assay, MDA-MB-453; assay type: cell-based, human; conditions: 24 hours, mean of two experiments
Method: as §3, §4, §5

[5] = system: T47-D (ER-positive) breast tumor cell line; assay: Cell death by MTT assay, T47-D; assay type: cell-based, human; conditions: 24 hours, mean of four experiments
Method: as §3, §4, §5

O=[N+]([O-])C1=Cc2cc(Br)cc(Br)c2OC1c1ccc(Br)cc1 (centres unmarked) [Compound 25, 6,8-dibromo-2-(4-bromo-phenyl)-3-nitro-2H-chromene]
mTORC1 activity in TSC2^−/− cells (mTORC1 [1]): inhibit mTORC1 activity
mTORC1-driven phosphorylation of 4EBP1 (high molecular weight band) (mTORC1 [1]; AML cells): disappears
inhibitory activity on mTORC2 substrate (AKT at S473) (mTORC2): inhibit
percentage of cell death ([2]; MCF-7, 6.25 μM): 47.86%
percentage of cell death ([2]; MCF-7, 12.5 μM): 63.54%
percentage of cell death ([2]; MCF-7, 25 μM): 76.72%
percentage of cell death ([2]; MCF-7, 50 μM): 94.09%
inhibitory activity on mTORC1 substrates (4EBP1 and p70S6K) (mTORC1 [3]): inhibit
percentage of cell death ([4]; MDA-MB-453, 0.390625 μM): 0%
percentage of cell death ([4]; MDA-MB-453, 0.78125 μM): 9.09%
percentage of cell death ([4]; MDA-MB-453, 1.5625 μM): 81%
percentage of cell death ([4]; MDA-MB-453, 3.125 μM): 85.57%
percentage of cell death ([4]; MDA-MB-453, 6.25 μM): 89.213%
percentage of cell death ([4]; MDA-MB-453, 12.5 μM): 95.09%
percentage of cell death ([4]; MDA-MB-453, 25 μM): 99.35%
percentage of cell death ([4]; MDA-MB-453, 50 μM): 100.76%
percentage of cell death ([5]; 6.25 μM): 85.31%
percentage of cell death ([5]; 12.5 μM): 91.27%
percentage of cell death ([5]; 25 μM): 90.23%
percentage of cell death ([5]; 50 μM): 91.25%

Reference: patent publication US9656984B2, “PI3K/AKT/mTOR inhibitors and pharmaceutical uses thereof” (UNIVERSITE DE RENNES 1, priority 2013, dated 2017)
